According to PMC6138628, “Enhanced uptake of gH625 by blood brain barrier compared to liver in vivo: characterization of the mechanism by an in vitro model and implications for delivery” (Scientific Reports, 2018):
Where two headings read alike, the source gives them in different places. Residues, ends and D or L forms follow the SMILES beside them.

Legend:
[1] = Circular dichroism spectroscopy in aqueous solution; assay type: physicochemical; settings: room temperature
Experimental: CD spectra were recorded at room temperature on a Jasco J-715 spectropolarimeter in a 0.1 cm quartz cell. The spectra are an average of 3 consecutive scans from 260 to 190 nm, recorded with a band width of 3 nm, a time constant of 16 s, and a scan rate of 10 nm/min. Spectra were recorded and corrected for the blank. Mean residue ellipticities (MRE) were calculated as MRE = Obsd/lcn (Obsd is the ellipticity measured in millidegrees, l is the path length of the cell in cm, c is the peptide concentration in mol/l, and n is the number of amino acid residues in the peptide). A solution of 8 µM of peptide with SUVs, was prepared as previously described. […] The percentage of helix was calculated from measurements of their mean residue ellipticity at 222 nm[44]. We used [ϑ]222 values of 0 and −40.000(1–2.5/n) deg cm^2 dmol^−1 per amino acid residue for 0% and 100% helicity; n is the number of amino acid residues. The ratio of the ellipticities at 222 and 208 nm were used to discriminate between monomeric and oligomeric states of helices. The experiment was performed before and after centrifugation to remove eventual precipitated peptides from solution.

[2] = outer NBD reduced with sodium dithionite
Experimental: A modification of the lipid mixing experiment allowed to measure peptide-induced mixing of the inner monolayer. A concentration of 0.6% mol for each of the fluorescent probes within the liposome was used. In order to completely reduce the NBD located at the outer surface of the membrane, LUVs were treated with sodium dithionite 100 mM (from a stock solution of 1 M dithionite in 1 M TRIS, pH 10.0) for approximately 1 h on ice in the dark. Excess sodium dithionite was removed by size exclusion chromatography through a Sephadex G-75 50 DNA Grade filtration column (GE Healthcare) eluted with a buffer containing 10 mM TRIS, 100 mM NaCl, and 1 mM EDTA, pH 7.4.
In the inner monolayer assay, the fluorescence from the vesicle membranes’ outer monolayer is eliminated by the addition of an aqueous reducing agent; while in the lipid mixing experiment we measured both hemi-fusion and complete fusion, in this experiment we determined only the extent of lipid mixing between the inner monolayers.

[3] = Membrane fluidity, Laurdan generalized polarization (GP); assay type: physicochemical; settings: P/L molar ratio 0.5, after 10 min, 37 °C, 5 mM HEPES, 100 mM NaCl, pH 7.4
Experimental: The samples were vortexed and lyophilized overnight.
LUVs containing Laurdan were prepared to determine membrane fluidity. In order to insert Laurdan into the bilayer, it was added to lipid films before hydration. The peptide gH625 was added to LUVs at a P/L molar ratio of 0.5 and after 10 min the fluorescence spectra were recorded using a 1 cm path length quartz cell, thermostated at 25 °C or 37 °C. Spectra were corrected for the baseline signal. Laurdan emission spectra were recorded from 400 to 550 nm with λex 365 nm in the absence or presence of gH625 in 5 mM HEPES, 100 mM NaCl buffer (pH 7.4). Laurdan emission can shift from 440, in the ordered phase, to 490 in the disordered phase. The excitation generalized polarization (GP) was calculated as GP = (I440 − I490)/(I440 + I490) where I440 and I490 are the fluorescence intensities at the maximum emission wavelength in the ordered (λem 440 nm) and disordered (λem 490 nm) phases.
LUVs fluidity before and after the addition of gH625 were obtained using the fluorescent probe Laurdan[47],[48]. […] The Generalized Polarization (GP) is a parameter commonly used to quantify the change in the lipid fluidity. […] The GP parameter allowed quantifying the effect of the peptide (Table 1). […]

[4] = 0.1 mM lipid, 37 °C, 100% = Triton X-100, repeated at least three times
Experimental: Large unilamellar vesicles (LUVs) and small unilamellar vesicles (SUVs) consisting of PI/DOPE/DPPC/PS/Chol/SM (4/23/30/8/20/15 ratio in moles)[33],[34], DSPC/POPE/PI/PS/lysoPC/SM/DOPG (37/21/7/9/3/18/5 ratio in moles)[35], and when required containing Rho-PE and NBD-PE, were formulated in 5 mM HEPES, 100 mM NaCl, pH 7.4. LUVs were prepared using the extrusion method as previously reported; lipids were first dissolved in chloroform, then dried under a nitrogen gas stream and lyophilized overnight. For fluorescence experiments, buffer was added to dry lipid films and vortexed for 1 h; then the lipid suspension was freeze-thawed 6 times and extruded 20 times through polycarbonate membranes with 0.1 μm diameter pores to obtain LUVs. For circular dichroism measurements, peptide samples in SUVs were prepared using the following protocol. Lipids were dissolved in chloroform and added to an equal volume of peptide solution dissolved in TFE containing appropriate peptide concentration. The samples were vortexed and lyophilized overnight. The dry samples were rehydrated with phosphate buffer (5 mM) for 1 h and sonicated for 30 min.
Membrane lipid mixing was followed by the resonance energy transfer assay (FRET)[39].

Question: With `CC[C@H](C)[C@H](NC(=O)[C@H](CC(C)C)NC(=O)[C@H](C)NC(=O)[C@H](CC(N)=O)NC(=O)[C@H](Cc1ccc(O)cc1)NC(=O)[C@H](Cc1c[nH]cn1)NC(=O)[C@H](C)NC(=O)[C@H](Cc1c[nH]c2ccccc12)NC(=O)[C@H](CCCNC(=N)N)NC(=O)[C@@H](NC(=O)[C@H](CC(C)C)NC(=O)[C@@H](NC(=O)[C@H](CO)NC(=O)[C@H](C)NC(=O)[C@H](CC(C)C)NC(=O)CNC(=O)[C@@H](N)Cc1c[nH]cn1)[C@@H](C)O)[C@@H](C)O)C(=O)N[C@@H](CCCNC(=N)N)C(=O)N[C@@H](C)C(=O)N[C@@H](Cc1ccccc1)C(N)=O` [gH625] (H-HGLASTLTRWAHYNALIRAF-NH2) as the molecule, how does the “Secondary structure by CD” value [1] read?
Answer: mainly random coil structure

Question: And the Inner monolayer fusion ([2]; at a P/L ratio corresponding to 100% of fusion, BBB mimicking LUVs)?
Answer: approximately 20%

Question: What about the Inner monolayer fusion ([2]; at a peptide/lipid ratio with 100% of lipid mixing, liver mimicking LUVs) of the same molecule?
Answer: 100%

Question: What about the “Generalized polarization (GP) value, +gH625” value ([3]; Laurdan in LUVs DSPC/POPE/PI/PS/lysoPC/SM/DOPG (37/21/7/9/3/18/5), no peptide 37 °C: 0.40) of the same molecule?
Answer: 0.49

Question: And the “Generalized polarization (GP) value, +gH625” value ([3]; Laurdan in LUVs PI/DOPE/DPPC/PS/Chol/SM (4/23/30/8/20/15), no peptide 37 °C: 0.19)?
Answer: 0.15

Question: What about the “Maximum peptide/lipid ratio (P/L), complete fusion of vesicles” value ([4]; LUVs DSPC/POPE/PI/PS/lysoPC/SM/DOPG (37/21/7/9/3/18/5)) of the same molecule?
Answer: 0.7

Question: And the “Maximum peptide/lipid ratio (P/L), complete fusion of vesicles” value ([4]; LUVs PI/DOPE/DPPC/PS/Chol/SM (4/23/30/8/20/15))?
Answer: 0.05
